Source: publication PMC6017028 (Molecules : A Journal of Synthetic Chemistry and Natural …, 2018)

Key:
human URAT1 = target: T1, human URAT1 (Homo sapiens, UniProt Q96S37); settings: for URAT1 inhibitory activity (in words): human URAT1, HEK293-URAT1 cells
T1 sequence (Q96S37 1-553): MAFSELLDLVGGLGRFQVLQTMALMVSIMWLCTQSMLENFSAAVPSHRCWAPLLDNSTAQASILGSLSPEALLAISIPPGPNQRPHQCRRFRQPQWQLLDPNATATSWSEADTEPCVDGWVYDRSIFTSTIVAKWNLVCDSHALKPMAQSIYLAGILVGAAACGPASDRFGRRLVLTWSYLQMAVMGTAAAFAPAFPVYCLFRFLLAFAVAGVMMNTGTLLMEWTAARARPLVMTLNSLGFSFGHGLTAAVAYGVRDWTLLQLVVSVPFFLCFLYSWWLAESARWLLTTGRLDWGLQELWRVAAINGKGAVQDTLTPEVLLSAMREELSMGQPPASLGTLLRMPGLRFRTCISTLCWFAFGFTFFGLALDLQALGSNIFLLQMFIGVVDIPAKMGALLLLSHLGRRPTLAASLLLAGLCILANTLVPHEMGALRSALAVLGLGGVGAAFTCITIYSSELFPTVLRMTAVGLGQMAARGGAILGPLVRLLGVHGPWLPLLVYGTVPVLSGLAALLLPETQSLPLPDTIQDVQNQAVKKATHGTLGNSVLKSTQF
Protocol: After incubation for 48 h, when the HEK293-URAT1 cells and mock cells were grown to confluence, the cells were treated with 0.25% trypsin for 1–2 min. Thereafter, the digested cells were diluted to a density of 1.5 × 10^5/mL and seeded onto the 24-well cell culture plates at 1 mL/well for about 48 h. […] The HEK293-URAT1 cells were then washed rapidly three times with ice-cold HBSS (Cl^− free) and lysed with 0.1 M aqueous NaOH solution. After that, 500-μL aliquots of cell lysates were transferred to scintillation vials and mixed with scintillation solution. The radioactivity in the cells was measured by a liquid scintillation counter (PerkinElmer, Waltham, MA, USA).

[1] = design: method as in PMID 17531180; settings: weak organic acid; cited from earlier work
[2] = ratio of IC50 values against human URAT1

## CCCn1c(Br)nnc1SCC(=O)O [1b, Sodium 2-((5-bromo-4-n-propyl-4H-1,2,4-triazol-3-yl)thio)acetate]
Human URAT1
  IC50: 4.83 ± 1.02 µM

## CC(C)(Sc1ncc(Br)n1Cc1cccs1)C(=O)[O-].[Na+] [1w, Sodium 2-((5-bromo-1-((2-thiophenyl)methyl)-1H-imidazol-2-yl)thio)-2-methylpropionate]
other
  melting point: 75 °C (dec.)
Human URAT1
  IC50: 17.4 ± 3.98 µM
  URAT1 inhibitory activity (in words): weak

## O=C([O-])CSc1nnc(Br)n1Cc1ccc(Cl)s1.[Na+] [1ha, Sodium 2-((5-bromo-4-((5-chloro-2-thiophenyl)methyl)-4H-1,2,4-triazol-3-yl)thio)acetate]
other
  melting point: 97 °C (dec.)
Human URAT1
  IC50: 11.2 ± 2.36 µM

## O=C([O-])CSc1nnc(Br)n1Cc1cccnc1.[Na+] [1f, Sodium 2-((5-bromo-4-(3-pyridinylmethyl)-4H-1,2,4-triazol-3-yl)thio)acetate]
other
  melting point: 109 to 111 °C
Human URAT1
  IC50: 14.2 ± 4.71 µM

## O=C([O-])CSc1nnc(Br)n1CC1CCCCC1.[Na+] [1c, Sodium 2-((5-bromo-4-(cyclohexylmethyl)-4H-1,2,4-triazol-3-yl)thio)acetate]
other
  melting point: 135 °C (dec.)
Human URAT1
  IC50: 4.6 ± 0.88 µM

## Cc1ccsc1Cn1c(Br)nnc1SCC(=O)[O-].[Na+] [1hd, Sodium 2-((5-bromo-4-((3-methyl-2-thiophenyl)methyl)-4H-1,2,4-triazol-3-yl)thio)acetate]
other
  melting point: 158 °C (dec.)
Human URAT1
  IC50: 3.04 ± 0.84 µM

## O=C([O-])CSc1nnc(Br)n1C(c1ccccc1)c1ccccc1.[Na+] [1j, Sodium 2-((5-bromo-4-(diphenylmethyl)-4H-1,2,4-triazol-3-yl)thio)acetate]
other
  melting point: 195 °C (dec.)
Human URAT1
  IC50: 1.15 ± 0.25 µM

## O=C([O-])CSc1nnc(Br)n1CC12CC3CC(CC(C3)C1)C2.[Na+] [1d, Sodium 2-((4-(1-adamantylmethyl)-5-bromo-4H-1,2,4-triazol-3-yl)thio)acetate]
other
  melting point: 194 °C (dec.)
Human URAT1
  IC50: 5.11 ± 0.79 µM

## O=C([O-])CSc1nnc(Br)n1Cc1ccc2occc2c1.[Na+] [1k, Sodium 2-((4-(benzo[b]furan-5-methyl)-5-bromo-4H-1,2,4-triazol-3-yl)thio)acetate]
other
  melting point: 92 °C (dec.)
Human URAT1
  IC50: 2.61 ± 0.4 µM

## CCn1c(Br)nnc1SCC(=O)O [1a, Sodium 2-((5-bromo-4-ethyl-4H-1,2,4-triazol-3-yl)thio)acetate]
Human URAT1
  IC50: 18.4 ± 3.36 µM

## O=C([O-])CSc1nnc(Br)n1Cc1ccc(-c2ccccc2)s1.[Na+] [1hg, Sodium 2-((5-bromo-4-((5-phenyl-2-thiophenyl)methyl)-4H-1,2,4-triazol-3-yl)thio)acetate]
other
  melting point: 212 °C (dec.)
Human URAT1
  IC50: 31.7 ± 9.34 µM

## O=C([O-])CSc1nnc(Br)n1Cc1ccc(-c2ccccc2)cc1.[Na+] [1i, Sodium 2-((4-(biphenyl-4-methyl)-5-bromo-4H-1,2,4-triazol-3-yl)thio)acetate]
other
  melting point: 199 to 201 °C
Human URAT1
  IC50: 1.16 ± 0.34 µM

## CC(C)(Sc1ncc(Br)n1Cc1ccc(C#N)c2ccccc12)C(=O)[O-].[Na+] [1r, Sodium 2-((5-bromo-1-((4-cyano-1-naphthyl)methyl)-1H-imidazol-2-yl)thio)-2-methylpropionate]
other
  melting point: 243 °C (dec.)
Human URAT1
  IC50: 0.21 ± 0.07 µM

## O=c1[nH]c(=O)c2[nH]c(=O)[nH]c2[nH]1 [Uric acid]
[1]
  pKa: 5.75

## CC(C)(Sc1nnc(Br)n1Cc1ccc(C#N)c2ccccc12)C(=O)O [1o]
Human URAT1
  IC50: 1.96 ± 0.34 µM

## O=C([O-])CSc1nnc(Br)n1Cc1cccc2c1sc1ccccc12.[Na+] [1hi, Sodium 2-((5-bromo-4-((dibenzo[b,d]thiophen-4-yl)methyl)-4H-1,2,4-triazol-3-yl)thio)acetate]
other
  melting point: 74 °C (dec.)
Human URAT1
  IC50: 18.5 ± 5.41 µM

## CC(C)(Sc1ccncc1Cc1ccc(C#N)c2ccccc12)C(=O)O [1u, Sodium 2-((3-((4-cyano-1-naphthyl)methyl)pyridin-4-yl)thio)-2-methylpropionate]
Human URAT1
  IC50: 1.39 ± 0.42 µM

## O=C([O-])CSc1nnc(Br)n1Cc1sc2ccccc2c1Br.[Na+] [1hh, Sodium 2-((5-bromo-4-((3-bromobenzo[b]thiophen-2-yl)methyl)-4H-1,2,4-triazol-3-yl)thio)acetate]
other
  melting point: 99 °C (dec.)
Human URAT1
  IC50: 0.12 ± 0.03 µM

## O=C([O-])CSc1nnc(Br)n1Cc1cccs1.[Na+] [1h, Sodium 2-((5-bromo-4-(2-thiophenylmethyl)-4H-1,2,4-triazol-3-yl)thio)acetate]
Human URAT1
  IC50: 0.035 ± 0.01 µM
Human URAT1; [2]
  fold more potent than benzbromarone: 8 fold
  fold more potent than parent lesinurad: 200 fold

## O=C([O-])C1(Sc2ncc(Br)n2Cc2cccs2)CCC1.[Na+] [1x, Sodium 1-((5-bromo-1-((2-thiophenyl)methyl)-1H-imidazol-2-yl)thio)cyclobutanecarboxylate]
other
  melting point: 210 °C (dec.)
Human URAT1
  IC50: 0.32 ± 0.07 µM
  URAT1 inhibitory activity (in words): highly potent

## O=C([O-])CSc1nnc(Br)n1Cc1ccco1.[Na+] [1g, Sodium 2-((5-bromo-4-(2-furanylmethyl)-4H-1,2,4-triazol-3-yl)thio)acetate]
other
  melting point: 108 to 111 °C
Human URAT1
  IC50: 4.54 ± 0.69 µM

## N#Cc1ccc(Cn2c(Br)nnc2SC2(C(=O)[O-])CCC2)c2ccccc12.[Na+] [1p, Sodium 1-((5-bromo-4-((4-cyano-1-naphthyl)methyl)-4H-1,2,4-triazol-3-yl)thio)cyclobutanecarboxylate]
other
  melting point: 136 °C (dec.)
Human URAT1
  IC50: 0.59 ± 0.17 µM

## O=C([O-])CSc1nnc(Br)n1Cc1ccsc1.[Na+] [1hf, Sodium 2-((5-bromo-4-((3-thiophenyl)methyl)-4H-1,2,4-triazol-3-yl)thio)acetate]
other
  melting point: 124 to 126 °C
Human URAT1
  IC50: > 50 µM
  URAT1 inhibitory activity (in words): complete loss of URAT1 inhibitory activity

## O=C([O-])CSc1nnc(Br)n1Cc1ccccc1.[Na+] [1e, Sodium 2-((4-benzyl-5-bromo-4H-1,2,4-triazol-3-yl)thio)acetate]
other
  melting point: 119 to 121 °C
Human URAT1
  IC50: 2.98 ± 0.6 µM

## O=C([O-])CSc1nnc(Br)n1Cc1ccc2ccccc2c1.[Na+] [1m, Sodium 2-((5-bromo-4-(2-naphthylmethyl)-4H-1,2,4-triazol-3-yl)thio)acetate]
other
  melting point: 118 °C (dec.)
Human URAT1
  IC50: 4.66 ± 1.04 µM

## N#Cc1ccc(Cc2cnccc2SC2(C(=O)[O-])CCC2)c2ccccc12.[Na+] [1v, Sodium 1-((3-((4-cyano-1-naphthyl)methyl)pyridin-4-yl)thio)cyclobutanecarboxylate]
other
  melting point: 296 °C (dec.)
Human URAT1
  IC50: 1.15 ± 0.2 µM

## O=C([O-])CSc1nnc(Br)n1Cc1ccc2ncccc2c1.[Na+] [1n, Sodium 2-((5-bromo-4-(quinoline-6-methyl)-4H-1,2,4-triazol-3-yl)thio)acetate]
other
  melting point: 122 °C (dec.)
Human URAT1
  IC50: 1.36 ± 0.24 µM

## N#Cc1ccc(Cc2cnccc2SCC(=O)[O-])c2ccccc12.[Na+] [1t, Sodium 2-((3-((4-cyano-1-naphthyl)methyl)pyridin-4-yl)thio)acetate]
other
  melting point: 268 °C (dec.)
Human URAT1
  IC50: 8.83 ± 1.02 µM

## N#Cc1ccc(Cn2c(Br)cnc2SCC(=O)[O-])c2ccccc12.[Na+] [1q, Sodium 2-((5-bromo-1-((4-cyano-1-naphthyl)methyl)-1H-imidazol-2-yl)thio)acetate]
other
  melting point: 161 °C (dec.)
Human URAT1
  IC50: 5.55 ± 0.98 µM

## Cc1ccc(Cn2c(Br)nnc2SCC(=O)[O-])s1.[Na+] [1hb, Sodium 2-((5-bromo-4-((5-methyl-2-thiophenyl)methyl)-4H-1,2,4-triazol-3-yl)thio)acetate]
other
  melting point: 157 °C (dec.)
Human URAT1
  IC50: > 50 µM

## Cc1cc(Cn2c(Br)nnc2SCC(=O)[O-])sc1Br.[Na+] [1he, Sodium 2-((5-bromo-4-((5-bromo-4-methyl-2-thiophenyl)methyl)-4H-1,2,4-triazol-3-yl)thio)acetate]
other
  melting point: 87 °C (dec.)
Human URAT1
  IC50: 6.1 ± 1.17 µM

## N#Cc1ccc(Cn2c(Br)nnc2SCC(=O)O)c2ccccc12 [1l, Sodium 2-((5-bromo-4-((4-cyano-1-naphthyl)methyl)-4H-1,2,4-triazol-3-yl)thio)acetate]
Human URAT1
  IC50: 3.8 ± 0.78 µM

## N#Cc1ccc(Cn2c(Br)cnc2SC2(C(=O)[O-])CCC2)c2ccccc12.[Na+] [1s, Sodium 1-((5-bromo-1-((4-cyano-1-naphthyl)methyl)-1H-imidazol-2-yl)thio)cyclobutanecarboxylate]
other
  melting point: 285 °C (dec.)
Human URAT1
  IC50: 0.48 ± 0.11 µM

## CCc1ccc(Cn2c(Br)nnc2SCC(=O)[O-])s1.[Na+] [1hc, Sodium 2-((5-bromo-4-((5-ethyl-2-thiophenyl)methyl)-4H-1,2,4-triazol-3-yl)thio)acetate]
other
  melting point: 178 to 180 °C
Human URAT1
  IC50: 7.98 ± 2.14 µM
